Results from PubChem BioAssay (NCI).
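Method: 48-hour compound exposure of cells in 96-well plates, five concentrations, linear interpolation of endpoints. Abbreviation: GI50, concentration required for 50% inhibition of growth. TGI marks complete inhibition of growth.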

Experiments:
Test in all cases: NCI tumour cell line growth inhibition, 48 h
[1] = system: A498 renal
[2] = system: A549 NSCLC
[3] = system: CAKI-1 renal
[4] = system: CCRF-CEM leukemia
[5] = system: COLO 205 colon
[6] = system: DLD-1 colon
[7] = system: DMS 114 small cell lung
[8] = system: DMS 273 small cell lung
[9] = system: EKVX NSCLC
[10] = system: HCC-2998 colon
[11] = system: HCT-116 colon
[12] = system: HCT-15 colon
[13] = system: HL-60(TB) leukemia
[14] = system: HOP-18 NSCLC
[15] = system: HOP-62 NSCLC
[16] = system: HOP-92 NSCLC
[17] = system: HT29 colon
[18] = system: IGROV1 ovarian
[19] = system: K-562 leukemia
[20] = system: KM12 colon
[21] = system: KM20L2 colon
[22] = system: LOX IMVI melanoma
[23] = system: M19-MEL melanoma
[24] = system: MALME-3M melanoma
[25] = system: MCF7 breast
[26] = system: MOLT-4 leukemia
[27] = system: NCI-H226 lung
[28] = system: NCI-H23 lung
[29] = system: NCI-H460 lung
[30] = system: NCI-H522 lung
[31] = system: NCI/ADR-RES ovarian
[32] = system: OVCAR-3 ovarian
[33] = system: OVCAR-4 ovarian
[34] = system: OVCAR-5 ovarian
[35] = system: OVCAR-8 ovarian
[36] = system: P388 leukemia
[37] = system: P388/ADR leukemia
[38] = system: RPMI-8226 leukemia
[39] = system: RXF 393 renal
[40] = system: SF-268 CNS
[41] = system: SF-295 CNS
[42] = system: SF-539 CNS
[43] = system: SK-MEL-2 melanoma
[44] = system: SK-MEL-28 melanoma
[45] = system: SK-MEL-5 melanoma
[46] = system: SK-OV-3 ovarian
[47] = system: SN12C renal
[48] = system: SN12K1 renal
[49] = system: SNB-19 CNS
[50] = system: SNB-75 CNS
[51] = system: SNB-78 CNS
[52] = system: SW-620 colon
[53] = system: U251 CNS
[54] = system: UACC-257 melanoma
[55] = system: UACC-62 melanoma
[56] = system: UO-31 renal

Q: `COC(=O)C1C(O)C(C)C(O)C(C)(O)/C=C/C=C(C)C(=O)Nc2c(C)c(OC(C)=O)c3c(c2O)C(=O)C(C)=C2OCOC(=C23)C(C)=CC(C)(O)C(O)C(C)C1OC(C)=O` (stereo not drawn) was tested. Which TGI [1] did it give?
A: Its TGI is over 56.2 µM.

Q: And the TGI [2]?
A: The TGI was over 100 µM.

Q: And the GI50 [3]?
A: The GI50 was 37.1 µM.

Q: What about the TGI [3] of the same compound?
A: Its TGI is 86.9 µM.

Q: And the GI50 [4]?
A: Its GI50 is 28.1 µM.

Q: What about the TGI [4] of the same compound?
A: Its TGI is 55.8 µM.

Q: And the TGI [5]?
A: Its TGI is 39.3 µM.

Q: And the TGI [6]?
A: Its TGI is 43.3 µM.

Q: What about the TGI [7] of the same compound?
A: Its TGI is 25.4 µM.

Q: What about the TGI [8] of the same compound?
A: Its TGI is over 100 µM.

Q: And the TGI [9]?
A: Its TGI is 67.8 µM.

Q: What about the TGI [10] of the same compound?
A: Its TGI is 85.5 µM.

Q: And the GI50 [11]?
A: The GI50 was 18.1 µM.

Q: What about the TGI [11] of the same compound?
A: The TGI was 34.5 µM.

Q: What about the TGI [12] of the same compound?
A: Its TGI is 69.6 µM.

Q: And the TGI [13]?
A: Its TGI is 49.8 µM.

Q: What about the TGI [14] of the same compound?
A: Its TGI is over 100 µM.

Q: What about the TGI [15] of the same compound?
A: Its TGI is over 100 µM.

Q: And the GI50 [16]?
A: The GI50 was 15.9 µM.

Q: And the TGI [16]?
A: The TGI was 35.1 µM.

Q: What about the TGI [17] of the same compound?
A: Its TGI is over 92.7 µM.

Q: And the TGI [18]?
A: Its TGI is 80.5 µM.

Q: And the GI50 [19]?
A: Its GI50 is 30.7 µM.

Q: And the TGI [19]?
A: The TGI was 60.5 µM.

Q: And the GI50 [20]?
A: Its GI50 is 19.2 µM.

Q: What about the TGI [20] of the same compound?
A: The TGI was 35.2 µM.

Q: And the TGI [21]?
A: The TGI was over 88.6 µM.

Q: What about the TGI [22] of the same compound?
A: The TGI was 41.2 µM.

Q: And the TGI [23]?
A: The TGI was 31.8 µM.

Q: What about the GI50 [24] of the same compound?
A: The GI50 was 22.6 µM.

Q: What about the TGI [24] of the same compound?
A: Its TGI is 43.8 µM.

Q: And the TGI [25]?
A: Its TGI is 34.5 µM.

Q: And the TGI [26]?
A: Its TGI is 54.8 µM.

Q: And the GI50 [27]?
A: Its GI50 is 50.7 µM.

Q: What about the TGI [27] of the same compound?
A: Its TGI is over 100 µM.

Q: And the TGI [28]?
A: The TGI was 52.7 µM.

Q: What about the GI50 [29] of the same compound?
A: The GI50 was 19.9 µM.

Q: And the TGI [29]?
A: Its TGI is 38.6 µM.

Q: What about the TGI [30] of the same compound?
A: Its TGI is 56 µM.

Q: What about the TGI [31] of the same compound?
A: Its TGI is over 100 µM.

Q: What about the GI50 [32] of the same compound?
A: Its GI50 is 22.4 µM.

Q: What about the TGI [32] of the same compound?
A: Its TGI is 63.1 µM.

Q: And the TGI [33]?
A: The TGI was over 100 µM.

Q: What about the TGI [34] of the same compound?
A: The TGI was over 100 µM.

Q: And the GI50 [35]?
A: The GI50 was 42.9 µM.

Q: What about the TGI [35] of the same compound?
A: The TGI was 92.1 µM.

Q: And the TGI [36]?
A: The TGI was 52.2 µM.

Q: What about the TGI [37] of the same compound?
A: Its TGI is over 83.1 µM.

Q: What about the GI50 [38] of the same compound?
A: Its GI50 is 27.1 µM.

Q: What about the TGI [38] of the same compound?
A: The TGI was 54.9 µM.

Q: And the TGI [39]?
A: The TGI was 33.4 µM.

Q: What about the GI50 [40] of the same compound?
A: Its GI50 is 39.9 µM.

Q: What about the TGI [40] of the same compound?
A: Its TGI is 75.8 µM.

Q: And the TGI [41]?
A: The TGI was over 100 µM.

Q: And the TGI [42]?
A: The TGI was 76.4 µM.

Q: What about the TGI [43] of the same compound?
A: The TGI was 39.7 µM.

Q: What about the GI50 [44] of the same compound?
A: Its GI50 is 33.4 µM.

Q: What about the TGI [44] of the same compound?
A: The TGI was 59.7 µM.

Q: And the TGI [45]?
A: The TGI was over 78.5 µM.

Q: What about the TGI [46] of the same compound?
A: The TGI was over 100 µM.

Q: And the TGI [47]?
A: Its TGI is 47.9 µM.

Q: What about the TGI [48] of the same compound?
A: Its TGI is 60.8 µM.

Q: And the TGI [49]?
A: Its TGI is over 100 µM.

Q: And the TGI [50]?
A: Its TGI is over 63.1 µM.

Q: What about the GI50 [51] of the same compound?
A: The GI50 was 37.9 µM.

Q: What about the TGI [51] of the same compound?
A: The TGI was 91.2 µM.

Q: What about the GI50 [52] of the same compound?
A: The GI50 was 31.6 µM.

Q: What about the TGI [52] of the same compound?
A: The TGI was 63.3 µM.

Q: What about the TGI [53] of the same compound?
A: The TGI was over 100 µM.

Q: And the GI50 [54]?
A: The GI50 was 20.1 µM.

Q: What about the TGI [54] of the same compound?
A: The TGI was 44.8 µM.

Q: And the TGI [55]?
A: The TGI was 47.7 µM.

Q: What about the TGI [56] of the same compound?
A: Its TGI is over 100 µM.
